From US8053585B2, “Protecting group for carboxylic acids that can be photolyzed by visible light” (Cornell Research Foundation, Inc., priority 2006, dated 2011) come the findings set out here.

In this series the target is T1, α1-subunit human glycine receptor (Homo sapiens, UniProt P23415).
T1 construct: expressed in transfected cells; host or cells: HEK 293 cells, transiently transfected (Polyfect), co-transfected with GFP plasmid as marker; cDNA from Prof; H. Betz
T1 sequence (P23415 29-457): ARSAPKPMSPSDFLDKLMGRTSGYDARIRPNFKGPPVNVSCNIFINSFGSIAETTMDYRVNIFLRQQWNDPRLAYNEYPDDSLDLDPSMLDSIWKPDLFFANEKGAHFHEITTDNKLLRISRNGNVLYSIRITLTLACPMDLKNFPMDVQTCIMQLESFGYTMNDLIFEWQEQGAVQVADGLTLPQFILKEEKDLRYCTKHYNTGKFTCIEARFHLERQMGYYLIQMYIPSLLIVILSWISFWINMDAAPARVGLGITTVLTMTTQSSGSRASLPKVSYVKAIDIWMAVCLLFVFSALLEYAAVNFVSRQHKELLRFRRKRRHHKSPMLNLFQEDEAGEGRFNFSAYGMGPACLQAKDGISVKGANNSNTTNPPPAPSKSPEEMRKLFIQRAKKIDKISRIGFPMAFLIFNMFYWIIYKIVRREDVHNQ
Description: Stability in aqueous solution by whole-cell current recording, cells used as glycine detector. It counts as cell-based. As to conditions: 1 mM solution, 20 hours in the dark, pH 7.4. The source says: In whole-cell current recording experiments with DECM-caged glutamate, HEK 293 cells stably transfected with cDNA encoding the GluR6 were used. In whole-cell current recording experiments with DECM-caged glycine, HEK 293 cells were transiently transfected with the cDNA of the α1-subunit of the human glycine receptor by using the Polyfect™ transfection reagent (Qiagen GmbH, D-40724, Hilden, Germany). The cDNA of the α1-subunit was kindly provided by Professor H. Betz (Max-Plank-Institute for brain Research, Frankfurt, Germany). The cells were co-transfected with cDNA encoding the green fluorescent protein (pGreen Lantern plasmid, Life Technologies, Gaitherberg, Md.) to detect transfected cells (Chalfie et al., “Green Fluorescent Protein as a Marker for Gene Expression,” Science 263:802-805 (1994), which is hereby incorporated by reference in its entirety).
The cells were used for electrophysiological experiments between 24 and 72 h after each passage. Whole-cell currents evoked by glutamate or glycine (100 μM) were recorded using the whole-cell configuration (Hamill et al., “Improved Patch-Clamp Techniques for High-Resolution Current Recording From Cells and Cell-Free Membrane Patches,” Pfluegers Arch 391:85-100 (1981), which is hereby incorporated by reference in its entirety) at room temperature, −60 mV, and pH 7.4. […]

`CCN(CC)c1ccc2c(COC(=O)CN)cc(=O)oc2c1` [DECM-caged glycine, (7-N,N-Diethylaminocoumarin-4-yl)-methyl-glycine-trifluoroacetate]: the “free glycine in solution of caged compound” value is “no free glycine was detected”.
